Laboratory results: patent US6613880B2, “Pipecolic acid derivatives of proline threonine amides useful for the treatment of rheumatoid arthritis” (Pharmacia Corporation, priority 1995, dated 2003)
Square brackets hold non-standard residues; d marks the D form. Peptide text beside a SMILES is read from it. * marks the point of attachment. ξ: configuration not given here. Butanoyl(3S-cHex) = C[C@@H](CC(=O)*)C1CCCCC1; Propanoyl(3-cHex) = O=C(CCC1CCCCC1)*; Thr(3ξ) = CC(O)[C@H](N)C(=O)O; Leu(ol) = CC(C)C[C@H](N)CO; Pip = O=C(O)[C@@H]1CCCCN1; NHPr = CCCN*

Molecular target: T1, DR(αβ1*0401) molecules (DR4) (Homo sapiens, UniProt P01903+P01911, A100K/A169T/F76Y/I96L/K127E/L162R/M171V/N62H/P40V/Q125Y/R42H/S133A/S149N/S66Y/V115G/V209L/W38E)
T1 construct: made in house
Test: Competitive Binding for DR4 (Competition Capture ELISA)
Conditions: competition with 50 nM biotinylated ML37-49 peptide for immunoaffinity purified DRB1*0401, pH 5.5, overnight at 37° C.
Description: Competitive Binding for DR4 (Competition Capture ELISA)
DR(αβ1*0401) molecules are affinity purified with L243 monoclonal antibody (hybridoma obtained from ATCC) using a modification of a published procedure (Gorga, J. C., et al., 1991. Res. Immunol. 142:401-407.). Duplicate samples of immunoaffinity purified DRB1*0401 molecules (0.5 μg/well) are incubated overnight at 37° C. with 50 nM biotinylated ML37-49 peptide in the presence or absence of 1 nM to 100 μM competitor peptides in 96-well polypropylene microtiter plates (Costar, Cambridge, Mass.). All dilutions are made in phosphate buffered saline, pH 5.5 containing 1% octaglucoside (Boehringher Mannheim). LB3.1 antibody (obtained from J. Strominger, Cambridge, Mass.) is plated onto flat-bottom 96-well polystyrene microtiter plates (Falcon, Becton-Dickinson, Mountainview, Calif.) in 0.1 M carbonate coating buffer, pH 9.6 overnight at 4° C. Antibody coated microtiter plates are blocked with 1% Carnation nonfat milk for 1 hr at room temperature. The plates are washed 3 times with PBS containing 0.05% Tween 20 (Biorad, Hercules, Calif.). The class II/peptide mixtures are added, incubated for 1 hr at 37° C., and washed as described above. Extravidin conjugated horseradish peroxidase (1:1000, Sigma Chemicals) is added to the wells and incubated for 30-60 min at 37° C. The plates are washed again, then incubated with o-phenylenediamine dihydrochloride and H2O2 (Sigma Chemicals, St. Louis, Mo.) in 0.5 M phosphate-citrate buffer, pH 5.0. The absorbance of each well is read at 450 nm.

Row | Molecule | IC50 [nM]
1 | CCCNC(=O)[C@@H](NC(=O)[C@@H]1CCCN1C(=O)[C@H](CC(=O)O)NC(=O)[C@@H]1CCCCN1C(=O)[C@@H](NC(=O)C[C@H](C)C1CCCCC1)C(C)C)C(C)O (stereo partly drawn) [Example 1, (S)-CBA-Val-Pec-Asp-Pro-Thr-propylamide] ({Butanoyl(3S-cHex)}-V[Pip]DP[Thr(3ξ)]-NHPr) | 30
2 | CCCNC(=O)[C@@H](NC(=O)[C@@H]1CCCN1C(=O)[C@H](CC(=O)O)NC(=O)[C@@H]1CCCCN1C(=O)[C@H](CCCCN)NC(=O)CCC1CCCCC1)[C@@H](C)O [Example 3, CPA-Lys-Pec-Asp-Pro-Thr-propylamide] ({Propanoyl(3-cHex)}-K[Pip]DPT-NHPr) | 259
3 | CC(C)C[C@@H](CO)NC(=O)[C@@H](NC(=O)[C@@H]1CCCN1C(=O)[C@H](CC(=O)O)NC(=O)[C@@H]1CCCCN1C(=O)[C@H](CCCCN)NC(=O)C[C@H](C)C1CCCCC1)[C@@H](C)O [Example 4, (S)-CBA-Lys-Pec-Asp-Pro-Thr-leucinol] ({Butanoyl(3S-cHex)}-K[Pip]DPT[Leu(ol)]) | 116
4 | (S)-CBA-Lys-Pec-Asp-Pro-Thr-propylamide [Example 2] | 289
